The record followed here is article PMC5315687 (ACS chemical biology, 2017).

This assay deals with T1, His6-MibD (Microbispora sp. ATCC PTA-5024, UniProt W2ESX4).
T1 sequence (W2ESX4 1-215): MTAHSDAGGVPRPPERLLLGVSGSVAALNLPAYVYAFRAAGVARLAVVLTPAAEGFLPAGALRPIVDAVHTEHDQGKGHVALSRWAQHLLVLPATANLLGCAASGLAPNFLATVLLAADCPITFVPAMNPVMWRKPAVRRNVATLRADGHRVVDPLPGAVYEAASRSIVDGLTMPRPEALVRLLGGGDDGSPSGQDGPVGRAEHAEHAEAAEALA
Kind of assay: flavin isolated from heat-denatured protein, MALDI-TOF MS. It is filed as binding. The note with it: non-covalent, co-purified.

For `Cc1cc2nc3c(=O)[nH]c(=O)nc-3n(C[C@H](O)[C@H](O)[C@H](O)COP(=O)(O)OP(=O)(O)OC[C@H]3O[C@@H](n4cnc5c(N)ncnc54)[C@H](O)[C@@H]3O)c2cc1C` [FAD], the “flavin isolated from heat-denatured protein, MALDI-TOF MS” value is recorded as “The isolation of FAD from His6-MibD suggests the cofactor is not covalently linked”.
